Reference: US20240425464A1, “Substituted Monohydrazides as Potent Antifungal Agents” (University of Kentucky Research Foundation, priority 2023, published 2024)
Values after ≈ are worked out from the molar mass of the structure shown. Where two headings read alike, the source gives them in different places.

Assays:
Test in all cases: MIC determination by in vitro antifungal assay
[1] = system: C. albicans ATCC 64124 (B); assay type: cell-based, Candida albicans
Description: (§1) 10 mg/mL stock solutions of compounds 1a-9j were prepared in dimethyl sulfoxide (DMSO) and were stored at −20° C. in the dark. The antifungal agent amphotericin B (AmB) was purchased from VWR (Radnor PA, USA). AmB was dissolved in DMSO at a final concentration of 5 mg/mL and was stored at −20° C., protected from light. Candida albicans American Type Culture Collection (ATCC) 10231 (strain A), C. albicans ATCC 64124 (B), and C. albicans ATCC MYA-2876 (C) were obtained from Utah State University. C. albicans ATCC 90819 (D), C. albicans ATCC MYA-2310 (E), C. albicans ATCC MYA-1237 (F), C. albicans ATCC MYA-1003 (G), Candida glabrata ATCC 2001 (H), Candida krusei ATCC 6258 (I), Candida parapsilosis ATCC 22019 (J), Cryptococcus neoformans ATCC MYA-895 (M), Aspergillus terreus ATCC MYA-3633 (N), and Aspergillus flavus ATCC MYA-3631 (0) were obtained from the American Type Culture Collection (ATCC; Manassas, VA, USA). Aspergillus nidulans ATCC 38163 (P) was obtained from University of Kentucky. Clinically derived Aspergillus fumigatus NRRL 163 (Q), A. fumigatus NRRL 5109 (R), and A. fumigatus NRRL 6113 (S) were obtained from Northern Regional Research Laboratory (NRRL). Candida auris 384 (K), C. auris 390 (L), and fungal strains 381-400 (including 10 C. auris (AR Bank #381-390), 3 Candida duobushaemulonii (AR Bank #391, AR Bank #392, and AR Bank #394), 2 Candida haemulonii (AR Bank #393 and AR Bank #395), 1 Kodameae ohmeri (AR Bank #396), 1 C. krusei (AR Bank #397), 1 Candida lusitaniae (AR Bank #398), and 2 Saccharomyces cerevisiae strains (AR Bank #399 and AR Bank #400)) were part of a larger fungal library from the AR Bank maintained by the Centers for Disease Control and Prevention (CDC; Atlanta, GA, USA). Filamentous fungi and yeasts were cultivated at 35° C. in RPMI 1640 medium (with L-glutamine, without sodium bicarbonate, Sigma-Aldrich, St. Louis, MO) buffered to a pH of 7.0 with 0.165 M morpholinepropanesulfonic acid (MOPS) buffer (Sigma-Aldrich). For cytotoxicity assays, HepG2 and the mouse macrophage cell line J774A.1 were obtained from University of Kentucky. The human embryonic kidney cell line, HEK-293, was bought from the ATCC. Mammalian cells were grown in Dulbecco's Modified Eagle's Medium (DMEM) (from VWR) with 10% fetal bovine serum (FBS) (from VWR) and 1% Pen/Strep (from ATCC). Cell lines were cultured at 37° C. with 5% CO2 and passaged by trypsinization with 0.05% trypsin: 0.53 mM EDTA (from Sigma-Aldrich).
(§2) The MIC values of compounds 1a-9j against yeast cells (strains A-P and 381-400) were determined in 96-well plates as described in the CLSI documents M27-A3 and M38-A2 with minor modifications.^2 A single colony of freshly prepared yeast cells was used to inoculate 5 mL of yeast extract peptone dextrose (YPD) broth prior to incubation overnight with shaking at 200 rpm at 35° C. From the actively growing yeast culture, 100 µL were then transferred to 900 μL of RPMI 1640 medium and re-adjusted to achieve OD600 of 0.12 (˜1×10^6 CFU/mL). The cell suspension was further diluted to achieve 1:100 in RPMI 1640 medium. 100 μL of cells were added to the wells of a 96-well microtiter plates that contained 100 µL of the compound solution to obtain concentrations of 0.06-31.3 μg/mL of compounds 1a-9j or AmB prior to incubation for 48 h at 35° C. […]

[2] = system: C. albicans ATCC 90819 (D); assay type: cell-based, Candida albicans
Description: as §1, §2

[3] = system: C. albicans ATCC MYA-1003 (G); assay type: cell-based, Candida albicans; conditions: strain G = C. albicans ATCC MYA-1063(R) (footnote), MYA-1003 in text
Description: as §1, §2

[4] = system: C. albicans ATCC MYA-1237 (F); assay type: cell-based, Candida albicans; conditions: strain F = C. albicans ATCC MYA-1237(R)
Description: as §1, §2

[5] = system: C. albicans ATCC MYA-2310 (E); assay type: cell-based, Candida albicans; conditions: strain E = C. albicans ATCC MYA-2310
Description: as §1, §2

[6] = system: C. albicans ATCC MYA-2876 (C); assay type: cell-based, Candida albicans; conditions: strain C = C. albicans ATCC MYA-2876(S)
Description: as §1, §2

[7] = system: Aspergillus terreus ATCC MYA-3633 (N); assay type: cell-based; conditions: strain N = A. terreus ATCC MYA-3633
Description: as §1
The MIC values of compounds 1a-9j against yeast cells (strains A-P and 381-400) were determined in 96-well plates as described in the CLSI documents M27-A3 and M38-A2 with minor modifications.^2 A single colony of freshly prepared yeast cells was used to inoculate 5 mL of yeast extract peptone dextrose (YPD) broth prior to incubation overnight with shaking at 200 rpm at 35° C. From the actively growing yeast culture, 100 µL were then transferred to 900 μL of RPMI 1640 medium and re-adjusted to achieve OD600 of 0.12 (˜1×10^6 CFU/mL). The cell suspension was further diluted to achieve 1:100 in RPMI 1640 medium. 100 μL of cells were added to the wells of a 96-well microtiter plates that contained 100 µL of the compound solution to obtain concentrations of 0.06-31.3 μg/mL of compounds 1a-9j or AmB prior to incubation for 48 h at 35° C.
Finally, the activity of these monohydrazides was explored against […] non-Candida strains: Cryptococcus neoformans ATCC MYA-895 (M), Aspergillus terreus ATCC MYA-3633 (N), Aspergillus flavus ATCC MYA-3631 (O), Aspergillus nidulans ATCC 38163 (P), Aspergillus fumigatus NRRL 163 (Q), A. fumigatus NRRL 5109 (R), and A. fumigatus NRRL 6113 (S) (Tables 1A and 1B). The double dilution method was used with concentrations ranging from 0.06 to 31.3 j·tg mL^−1 for monohydrazides 1a-9j, and the commercially available positive antifungal control amphotericin B (AmB).

[8] = strain B = C. albicans ATCC 64124
[9] = strain D = C. albicans ATCC 90819(R)
[10] = Candida albicans, ATCC64124, strain B = C. albicans ATCC 64124, read-out: MIC
[11] = Candida albicans, ATCC90819, strain D = C. albicans ATCC 90819(R), read-out: MIC
[12] = Candida albicans, read-out: MIC
[13] = Aspergillus terreus, read-out: MIC

O=C(NNc1ccc(F)cc1)c1ccc(F)cn1 [Compound 3d]
MIC [1, 8]: 1.95 μg/mL^−1
MIC [2, 9]: 1.95 μg/mL^−1
MIC [3]: 1.95 μg/mL^−1
MIC [4]: 1.95 μg/mL^−1
MIC [5]: 3.9 μg/mL^−1
MIC [6]: 3.9 μg/mL^−1
MIC [7]: 3.9 μg/mL^−1

O=C(NNc1ccc(Cl)cc1)c1ccc(F)cn1 [Compound 3e]
MIC [1, 8]: 1.95 μg/mL^−1
MIC [2, 9]: 3.9 μg/mL^−1
MIC [3]: 0.98 μg/mL^−1
MIC [4]: 1.95 μg/mL^−1
MIC [5]: 1.95 μg/mL^−1
MIC [6]: 1.95 μg/mL^−1
MIC [7]: >31.3 μg/mL^−1

COc1ccc(NNC(=O)c2ccc(F)cn2)cc1 [Compound 3f]
MIC [1, 8]: 0.98 μg/mL^−1
MIC [2, 9]: 0.98 μg/mL^−1
MIC [3]: 0.49 μg/mL^−1
MIC [4]: 0.49 μg/mL^−1
MIC [5]: 0.98 μg/mL^−1
MIC [6]: 0.98 μg/mL^−1
MIC [7]: 31.3 μg/mL^−1

O=C(NNc1ccc(F)cc1F)c1ccc(F)cn1 [Compound 3g]
MIC [1, 10]: 1.95 µg/mL (≈ 7.3 µM)
MIC [2, 11]: 1.95 µg/mL (≈ 7.3 µM)
MIC [3, 12]: 0.98 µg/mL (≈ 3.67 µM)
MIC [4, 12]: 1.95 µg/mL (≈ 7.3 µM)
MIC [5, 12]: 1.95 µg/mL (≈ 7.3 µM)
MIC [6, 12]: 1.95 µg/mL (≈ 7.3 µM)
MIC [7, 13]: 3.9 µg/mL (≈ 14.6 µM)

O=C(NNc1cccc(F)c1)c1ccc(Br)cn1 [Compound 4a]
MIC [1, 8]: 0.49 μg/mL^−1
MIC [2, 9]: 3.9 μg/mL^−1
MIC [3]: 0.98 μg/mL^−1
MIC [4]: 3.9 μg/mL^−1
MIC [5]: 3.9 μg/mL^−1
MIC [6]: 1.95 μg/mL^−1
MIC [7]: 0.98 μg/mL^−1

COc1cccc(NNC(=O)c2ccc(Br)cn2)c1 [Compound 4c]
MIC [1, 10]: 0.98 µg/mL (≈ 3.04 µM)
MIC [2, 11]: 3.9 µg/mL (≈ 12.1 µM)
MIC [3, 12]: 0.98 µg/mL (≈ 3.04 µM)
MIC [4, 12]: 1.95 µg/mL (≈ 6.05 µM)
MIC [5, 12]: 1.95 µg/mL (≈ 6.05 µM)
MIC [6, 12]: 0.49 µg/mL (≈ 1.52 µM)
MIC [7, 13]: 3.9 µg/mL (≈ 12.1 µM)

O=C(NNc1ccc(F)cc1)c1ccc(Br)cn1 [Compound 4d]
MIC [1, 10]: 7.8 µg/mL (≈ 25.2 µM)
MIC [2, 11]: 7.8 µg/mL (≈ 25.2 µM)
MIC [3, 12]: 1.9 µg/mL (≈ 6.13 µM)
MIC [4, 12]: 7.8 µg/mL (≈ 25.2 µM)
MIC [5, 12]: 7.8 µg/mL (≈ 25.2 µM)
MIC [6, 12]: 7.8 µg/mL (≈ 25.2 µM)
MIC [7, 13]: 7.8 µg/mL (≈ 25.2 µM)

COc1ccc(NNC(=O)c2ccc(Br)cn2)cc1 [Compound 4f]
MIC [1, 10]: 3.9 µg/mL (≈ 12.1 µM)
MIC [2, 11]: 3.9 µg/mL (≈ 12.1 µM)
MIC [3, 12]: 1.95 µg/mL (≈ 6.05 µM)
MIC [4, 12]: 0.98 µg/mL (≈ 3.04 µM)
MIC [5, 12]: 3.9 µg/mL (≈ 12.1 µM)
MIC [6, 12]: 1.95 µg/mL (≈ 6.05 µM)
MIC [7, 13]: 7.8 µg/mL (≈ 24.2 µM)

O=C(NNc1ccc(F)cc1F)c1ccc(Br)cn1 [Compound 4g]
MIC [1, 10]: 15.6 µg/mL (≈ 47.5 µM)
MIC [2, 11]: 3.9 µg/mL (≈ 11.9 µM)
MIC [3, 12]: 15.6 µg/mL (≈ 47.5 µM)
MIC [4, 12]: 1.95 µg/mL (≈ 5.94 µM)
MIC [5, 12]: > 31.3 µg/mL
MIC [6, 12]: 0.98 µg/mL (≈ 2.99 µM)
MIC [7, 13]: 3.9 µg/mL (≈ 11.9 µM)

O=C(NNc1cccc(F)c1)c1cccc(F)n1 [Compound 5a]
MIC [1, 8]: 0.49 μg/mL^−1
MIC [2, 9]: 7.8 μg/mL^−1
MIC [3]: 1.95 μg/mL^−1
MIC [4]: 1.95 μg/mL^−1
MIC [5]: 1.95 μg/mL^−1
MIC [6]: 3.9 μg/mL^−1
MIC [7]: 1.95 μg/mL^−1
